Legend:
Assay in all cases: biochemical
[1] = target: T1, panel of 374 wild-type kinases (Homo sapiens, UniProt O94804); details: read-out: % Enzyme Activity (relative to DMSO controls), LOK/STK10
T1 construct: purchased Reaction Biology Corporation

[2] = target: T2, panel of 374 wild-type kinases (Homo sapiens, UniProt P11362); details: read-out: % Enzyme Activity (relative to DMSO controls), FGFR1
T2 construct: purchased Reaction Biology Corporation

[3] = target: T3, panel of 374 wild-type kinases (Homo sapiens, UniProt P23443); details: read-out: % Enzyme Activity (relative to DMSO controls), kinase p70S6K/RPS6KB1
T3 construct: purchased Reaction Biology Corporation

[4] = target: T4, panel of 374 wild-type kinases (Homo sapiens, UniProt P42680); details: read-out: % Enzyme Activity (relative to DMSO controls), kinase TEC
T4 construct: purchased Reaction Biology Corporation
T4 sequence (P42680 1-631): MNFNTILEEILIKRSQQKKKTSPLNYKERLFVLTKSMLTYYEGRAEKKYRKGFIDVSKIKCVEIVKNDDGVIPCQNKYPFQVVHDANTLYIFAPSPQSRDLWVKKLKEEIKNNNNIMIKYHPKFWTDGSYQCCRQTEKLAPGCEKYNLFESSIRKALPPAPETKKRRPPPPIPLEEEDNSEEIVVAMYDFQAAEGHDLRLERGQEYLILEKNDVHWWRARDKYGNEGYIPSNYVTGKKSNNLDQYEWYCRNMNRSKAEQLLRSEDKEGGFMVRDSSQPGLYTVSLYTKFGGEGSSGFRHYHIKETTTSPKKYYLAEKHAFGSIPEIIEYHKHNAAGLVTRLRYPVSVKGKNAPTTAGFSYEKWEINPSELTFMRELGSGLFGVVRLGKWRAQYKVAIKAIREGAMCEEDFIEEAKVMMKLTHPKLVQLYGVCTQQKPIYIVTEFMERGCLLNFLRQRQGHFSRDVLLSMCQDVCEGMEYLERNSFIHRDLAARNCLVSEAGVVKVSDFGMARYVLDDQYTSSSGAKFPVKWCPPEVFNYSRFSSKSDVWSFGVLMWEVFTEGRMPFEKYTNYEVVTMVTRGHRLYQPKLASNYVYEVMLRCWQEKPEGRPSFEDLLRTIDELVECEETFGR

[5] = target: T5, panel of 374 wild-type kinases (Homo sapiens, UniProt P45985); details: read-out: % Enzyme Activity (relative to DMSO controls), MKK4
T5 construct: purchased Reaction Biology Corporation
T5 sequence (P45985 1-399): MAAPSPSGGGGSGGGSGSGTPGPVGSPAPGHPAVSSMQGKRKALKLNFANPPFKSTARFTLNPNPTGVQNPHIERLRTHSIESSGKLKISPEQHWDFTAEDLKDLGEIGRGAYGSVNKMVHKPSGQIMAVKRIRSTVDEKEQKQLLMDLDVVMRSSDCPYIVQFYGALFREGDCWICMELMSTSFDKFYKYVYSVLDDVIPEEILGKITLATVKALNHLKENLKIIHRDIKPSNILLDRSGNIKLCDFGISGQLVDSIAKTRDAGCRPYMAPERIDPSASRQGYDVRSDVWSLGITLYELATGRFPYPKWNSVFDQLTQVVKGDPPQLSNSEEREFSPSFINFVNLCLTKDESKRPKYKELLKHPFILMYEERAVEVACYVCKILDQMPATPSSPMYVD

[6] = target: T6, panel of 374 wild-type kinases (Homo sapiens, UniProt P48729); details: read-out: % Enzyme Activity (relative to DMSO controls), CK1a1
T6 construct: purchased Reaction Biology Corporation

[7] = target: T7, panel of 374 wild-type kinases (Homo sapiens, UniProt Q13177); details: read-out: % Enzyme Activity (relative to DMSO controls), kinase PAK2
T7 construct: purchased Reaction Biology Corporation

[8] = target: T8, panel of 374 wild-type kinases (Homo sapiens, UniProt Q15208); details: read-out: % Enzyme Activity (relative to DMSO controls), kinase STK38/NDR1
T8 construct: purchased Reaction Biology Corporation

[9] = target: T9, panel of 374 wild-type kinases (Homo sapiens, UniProt Q96SB4); details: read-out: % Enzyme Activity (relative to DMSO controls), kinase SRPK1
T9 construct: purchased Reaction Biology Corporation

[10] = target: T10, panel of 374 wild-type kinases (Homo sapiens, UniProt Q9H1R3); details: read-out: % Enzyme Activity (relative to DMSO controls), MLCK2/MYLK2
T10 construct: purchased Reaction Biology Corporation

[11] = target: T11, panel of 374 wild-type kinases (Homo sapiens, UniProt Q9H2K8); details: read-out: % Enzyme Activity (relative to DMSO controls), kinase TAOK3/JIK
T11 construct: purchased Reaction Biology Corporation
T11 sequence (Q9H2K8 1-898): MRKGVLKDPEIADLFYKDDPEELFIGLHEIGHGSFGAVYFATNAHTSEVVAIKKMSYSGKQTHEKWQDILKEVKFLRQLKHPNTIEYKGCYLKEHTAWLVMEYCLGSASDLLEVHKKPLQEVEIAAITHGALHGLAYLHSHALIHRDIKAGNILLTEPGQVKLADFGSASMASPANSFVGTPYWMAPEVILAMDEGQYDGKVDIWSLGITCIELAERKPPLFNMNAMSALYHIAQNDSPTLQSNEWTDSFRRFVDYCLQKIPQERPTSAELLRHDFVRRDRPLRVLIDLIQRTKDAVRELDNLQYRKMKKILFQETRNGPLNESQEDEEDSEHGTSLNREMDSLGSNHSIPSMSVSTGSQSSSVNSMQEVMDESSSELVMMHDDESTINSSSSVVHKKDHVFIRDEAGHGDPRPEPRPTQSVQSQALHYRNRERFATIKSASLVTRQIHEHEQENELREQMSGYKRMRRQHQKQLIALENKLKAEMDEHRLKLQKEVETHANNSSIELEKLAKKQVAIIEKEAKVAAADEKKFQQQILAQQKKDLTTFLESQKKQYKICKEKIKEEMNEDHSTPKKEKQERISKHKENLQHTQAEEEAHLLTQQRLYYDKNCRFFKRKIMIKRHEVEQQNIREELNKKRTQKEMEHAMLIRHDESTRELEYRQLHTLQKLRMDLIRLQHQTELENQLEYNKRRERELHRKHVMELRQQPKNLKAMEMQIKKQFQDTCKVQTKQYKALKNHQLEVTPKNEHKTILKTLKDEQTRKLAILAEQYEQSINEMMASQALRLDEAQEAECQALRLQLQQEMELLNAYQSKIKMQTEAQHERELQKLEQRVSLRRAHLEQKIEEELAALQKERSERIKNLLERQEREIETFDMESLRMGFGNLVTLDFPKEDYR

T1 sequence (O94804 whole entry): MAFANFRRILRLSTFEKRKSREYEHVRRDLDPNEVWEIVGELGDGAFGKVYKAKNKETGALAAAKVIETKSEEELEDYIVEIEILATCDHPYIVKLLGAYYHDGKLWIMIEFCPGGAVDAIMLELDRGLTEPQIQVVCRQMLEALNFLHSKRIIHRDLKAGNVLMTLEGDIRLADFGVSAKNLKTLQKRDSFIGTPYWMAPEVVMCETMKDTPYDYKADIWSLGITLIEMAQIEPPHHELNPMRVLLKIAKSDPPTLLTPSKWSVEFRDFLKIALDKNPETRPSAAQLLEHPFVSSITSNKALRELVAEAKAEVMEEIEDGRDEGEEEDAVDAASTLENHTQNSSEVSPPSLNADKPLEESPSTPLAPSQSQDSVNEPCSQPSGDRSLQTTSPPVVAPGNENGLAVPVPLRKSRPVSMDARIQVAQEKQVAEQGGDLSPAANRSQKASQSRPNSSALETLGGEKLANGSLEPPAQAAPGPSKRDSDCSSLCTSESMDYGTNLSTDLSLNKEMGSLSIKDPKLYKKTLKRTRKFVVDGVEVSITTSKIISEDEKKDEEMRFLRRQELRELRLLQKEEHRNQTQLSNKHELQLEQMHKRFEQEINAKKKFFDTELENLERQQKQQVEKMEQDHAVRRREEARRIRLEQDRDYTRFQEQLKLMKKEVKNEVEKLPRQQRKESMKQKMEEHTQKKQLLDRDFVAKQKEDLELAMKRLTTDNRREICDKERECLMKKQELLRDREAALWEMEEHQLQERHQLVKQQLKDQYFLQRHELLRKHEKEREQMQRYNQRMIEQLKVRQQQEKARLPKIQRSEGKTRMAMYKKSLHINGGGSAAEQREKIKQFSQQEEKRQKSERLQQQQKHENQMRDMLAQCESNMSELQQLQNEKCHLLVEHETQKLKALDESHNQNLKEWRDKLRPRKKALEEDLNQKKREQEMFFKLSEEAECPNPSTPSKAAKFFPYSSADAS
T8 sequence (Q15208 whole entry): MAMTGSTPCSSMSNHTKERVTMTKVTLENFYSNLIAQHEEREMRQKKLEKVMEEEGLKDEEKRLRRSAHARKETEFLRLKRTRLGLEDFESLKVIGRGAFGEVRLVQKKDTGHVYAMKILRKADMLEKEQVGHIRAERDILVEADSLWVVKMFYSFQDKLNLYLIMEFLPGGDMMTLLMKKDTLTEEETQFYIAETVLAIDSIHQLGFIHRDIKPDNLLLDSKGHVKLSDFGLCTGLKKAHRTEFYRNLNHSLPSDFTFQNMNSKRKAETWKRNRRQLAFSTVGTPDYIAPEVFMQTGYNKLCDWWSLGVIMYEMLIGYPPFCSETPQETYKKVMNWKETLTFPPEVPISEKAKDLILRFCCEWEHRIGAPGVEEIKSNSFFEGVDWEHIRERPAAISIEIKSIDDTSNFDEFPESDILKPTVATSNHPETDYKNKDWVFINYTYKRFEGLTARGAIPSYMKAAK
T10 sequence (Q9H1R3 whole entry): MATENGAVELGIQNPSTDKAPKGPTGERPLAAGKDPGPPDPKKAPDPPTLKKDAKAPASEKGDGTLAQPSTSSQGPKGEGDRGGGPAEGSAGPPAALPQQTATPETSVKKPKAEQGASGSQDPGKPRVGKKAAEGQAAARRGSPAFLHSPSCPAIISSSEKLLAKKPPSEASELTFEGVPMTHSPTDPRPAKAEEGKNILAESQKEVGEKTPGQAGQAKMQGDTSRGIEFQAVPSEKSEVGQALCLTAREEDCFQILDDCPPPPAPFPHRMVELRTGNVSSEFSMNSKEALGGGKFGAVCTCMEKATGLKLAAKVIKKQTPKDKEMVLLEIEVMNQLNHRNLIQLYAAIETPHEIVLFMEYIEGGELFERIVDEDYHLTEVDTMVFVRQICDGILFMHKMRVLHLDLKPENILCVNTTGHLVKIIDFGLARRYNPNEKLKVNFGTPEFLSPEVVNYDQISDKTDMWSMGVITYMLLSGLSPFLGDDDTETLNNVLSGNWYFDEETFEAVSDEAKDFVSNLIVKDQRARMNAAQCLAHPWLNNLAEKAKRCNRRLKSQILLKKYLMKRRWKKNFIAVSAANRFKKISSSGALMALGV
T7 sequence (Q13177 whole entry): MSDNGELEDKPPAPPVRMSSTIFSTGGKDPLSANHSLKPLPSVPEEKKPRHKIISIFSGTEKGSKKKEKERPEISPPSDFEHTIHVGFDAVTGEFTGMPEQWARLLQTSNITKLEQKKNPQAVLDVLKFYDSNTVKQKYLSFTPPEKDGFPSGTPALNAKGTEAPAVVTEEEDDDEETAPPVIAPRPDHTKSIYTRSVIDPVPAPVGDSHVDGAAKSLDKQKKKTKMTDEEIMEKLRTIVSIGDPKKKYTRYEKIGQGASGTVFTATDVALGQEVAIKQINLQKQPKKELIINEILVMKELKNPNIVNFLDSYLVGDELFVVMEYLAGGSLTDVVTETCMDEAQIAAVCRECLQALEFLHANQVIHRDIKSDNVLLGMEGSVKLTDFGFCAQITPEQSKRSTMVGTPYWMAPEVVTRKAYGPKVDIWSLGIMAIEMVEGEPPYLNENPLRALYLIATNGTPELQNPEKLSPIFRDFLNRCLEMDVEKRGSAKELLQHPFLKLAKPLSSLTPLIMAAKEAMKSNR
T9 sequence (Q96SB4 whole entry): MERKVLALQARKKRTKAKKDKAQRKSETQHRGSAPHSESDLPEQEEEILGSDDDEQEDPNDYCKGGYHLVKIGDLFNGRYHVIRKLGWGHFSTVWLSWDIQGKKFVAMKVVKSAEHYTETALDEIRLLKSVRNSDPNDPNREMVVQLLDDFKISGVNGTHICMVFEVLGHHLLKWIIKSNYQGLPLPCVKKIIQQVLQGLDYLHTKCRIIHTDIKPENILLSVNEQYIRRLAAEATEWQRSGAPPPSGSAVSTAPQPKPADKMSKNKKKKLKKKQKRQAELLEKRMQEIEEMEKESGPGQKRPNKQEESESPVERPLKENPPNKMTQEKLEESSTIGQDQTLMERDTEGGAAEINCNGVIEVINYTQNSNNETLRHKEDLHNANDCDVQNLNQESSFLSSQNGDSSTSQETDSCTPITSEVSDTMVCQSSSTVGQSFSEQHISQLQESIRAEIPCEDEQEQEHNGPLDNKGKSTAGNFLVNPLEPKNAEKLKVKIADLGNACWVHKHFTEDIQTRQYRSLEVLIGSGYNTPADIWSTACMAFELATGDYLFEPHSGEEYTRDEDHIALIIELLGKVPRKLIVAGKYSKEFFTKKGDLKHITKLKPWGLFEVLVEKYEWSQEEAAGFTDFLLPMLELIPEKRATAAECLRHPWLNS
T2 sequence (P11362 22-822): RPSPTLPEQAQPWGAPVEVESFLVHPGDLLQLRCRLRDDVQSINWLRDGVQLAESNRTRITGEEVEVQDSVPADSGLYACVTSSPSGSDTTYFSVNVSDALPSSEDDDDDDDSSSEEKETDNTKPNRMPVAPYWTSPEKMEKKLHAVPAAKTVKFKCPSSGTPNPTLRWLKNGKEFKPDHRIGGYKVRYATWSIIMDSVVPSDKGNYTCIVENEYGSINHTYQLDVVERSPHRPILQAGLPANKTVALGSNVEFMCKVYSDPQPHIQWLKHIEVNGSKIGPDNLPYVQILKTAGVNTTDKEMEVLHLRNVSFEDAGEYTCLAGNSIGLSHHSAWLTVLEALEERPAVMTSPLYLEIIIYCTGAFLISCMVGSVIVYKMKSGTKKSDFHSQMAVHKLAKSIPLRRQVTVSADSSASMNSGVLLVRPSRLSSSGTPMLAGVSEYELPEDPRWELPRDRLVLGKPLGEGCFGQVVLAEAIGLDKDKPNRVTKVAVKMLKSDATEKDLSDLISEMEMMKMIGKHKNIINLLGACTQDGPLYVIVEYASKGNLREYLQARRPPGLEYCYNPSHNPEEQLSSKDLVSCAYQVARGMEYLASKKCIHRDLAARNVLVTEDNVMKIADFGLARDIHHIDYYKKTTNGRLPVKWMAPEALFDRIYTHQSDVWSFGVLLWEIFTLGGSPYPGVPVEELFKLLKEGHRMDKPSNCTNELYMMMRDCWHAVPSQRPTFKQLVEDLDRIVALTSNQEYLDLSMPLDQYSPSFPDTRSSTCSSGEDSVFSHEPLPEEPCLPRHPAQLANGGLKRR
T6 sequence (P48729 whole entry): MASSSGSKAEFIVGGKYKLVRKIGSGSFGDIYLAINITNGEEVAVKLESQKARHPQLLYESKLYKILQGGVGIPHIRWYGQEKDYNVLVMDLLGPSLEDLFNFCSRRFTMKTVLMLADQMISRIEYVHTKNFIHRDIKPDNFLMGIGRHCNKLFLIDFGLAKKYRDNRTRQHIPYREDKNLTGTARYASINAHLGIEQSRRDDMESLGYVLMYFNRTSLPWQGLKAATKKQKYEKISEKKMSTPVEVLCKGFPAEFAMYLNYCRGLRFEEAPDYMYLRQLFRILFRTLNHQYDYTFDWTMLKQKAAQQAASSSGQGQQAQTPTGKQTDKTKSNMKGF
T3 sequence (P23443 whole entry): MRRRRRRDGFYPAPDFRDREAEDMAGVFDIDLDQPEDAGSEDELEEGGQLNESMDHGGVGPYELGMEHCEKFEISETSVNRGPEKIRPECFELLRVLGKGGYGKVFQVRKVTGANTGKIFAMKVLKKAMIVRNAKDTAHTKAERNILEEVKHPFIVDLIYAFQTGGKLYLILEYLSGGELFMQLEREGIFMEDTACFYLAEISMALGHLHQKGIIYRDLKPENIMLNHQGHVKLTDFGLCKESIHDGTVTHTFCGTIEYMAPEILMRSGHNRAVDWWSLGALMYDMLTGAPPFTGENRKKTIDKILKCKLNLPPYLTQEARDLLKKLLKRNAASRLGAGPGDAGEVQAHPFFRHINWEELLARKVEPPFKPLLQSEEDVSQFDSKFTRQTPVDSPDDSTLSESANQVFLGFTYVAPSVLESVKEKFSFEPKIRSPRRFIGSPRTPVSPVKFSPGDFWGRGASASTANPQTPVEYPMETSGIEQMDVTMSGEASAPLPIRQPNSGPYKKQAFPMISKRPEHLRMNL

SMILES	remaining activity at 5 µM [1]	remaining activity at 5 µM [2]	remaining activity at 5 µM [3]	remaining activity at 5 µM [4]	remaining activity at 5 µM [5]	remaining activity at 5 µM [6]	remaining activity at 5 µM [7]	remaining activity at 5 µM [8]	remaining activity at 5 µM [9]	remaining activity at 5 µM [10]	remaining activity at 5 µM [11]	other results
O=C(Nc1cnn(-c2csc(C(=O)NC3COC3)c2)c1)Nc1ccccc1Cl [Compound 17, 4-(4-(3-(2-chlorophenyl)ureido)-1H-pyrazol-1-yl)-N-(oxetan-3-yl)thiophene-2-carboxamide]	87.9%	98.5%	92.1%	97.2%	113%	98.5%	90.1%	99.2%	98.7%	89.9%	103%	
Cc1sc(C(=O)NC2COC2)cc1-n1cc(NC(=O)Nc2c(F)cccc2Cl)cn1 [Compound 27, 4-(4-(3-(2-chloro-6-fluorophenyl)ureido)-1H-pyrazol-1-yl)-5-methyl-N-(oxetan-3-yl)thiophene-2-carboxamide]												remaining activity at 10 µM ([1]; 10 uM): 96.4%; remaining activity at 10 µM ([2]; 10 uM): 114%; remaining activity at 10 µM ([3]; 10 uM): 92.1%; remaining activity at 10 µM ([4]; 10 uM): 91.1%; remaining activity at 10 µM ([5]; 10 uM): 93%; remaining activity at 10 µM ([6]; 10 uM): 81.1%; remaining activity at 10 µM ([7]; 10 uM): 106%; remaining activity at 10 µM ([8]; 10 uM): 91.5%; remaining activity at 10 µM ([9]; 10 uM): 96.9%; remaining activity at 10 µM ([10]; 10 uM): 78.7%; remaining activity at 10 µM ([11]; 10 uM): 98%
O=C(Nc1cnn(-c2csc(C(=O)NC3COC3)c2)c1)Nc1c(F)cccc1Cl [Compound 25, 4-(4-(3-(2-chloro-6-fluorophenyl)ureido)-1H-pyrazol-1-yl)-N-(oxetan-3-yl)thiophene-2-carboxamide]	89%	93.2%	97.7%	97.7%	133%	76.6%	95.3%	95.5%	104%	83.5%	90.2%	
